Source: ChEMBL document CHEMBL4613212, “Insights of synthetic analogues of anti-leprosy agents” (Bioorg Med Chem, 2019)
In brackets after ≈: the same amount, converted by molar mass.

Assays:
[1] = tested on: Mycobacterium tuberculosis; experiment: Antimycobacterial activity against Mycobacterium tuberculosis H37Rv infected in CF-1 mouse assessed as change in survival time at 6 mg/kg administrated daily for 14 days with food relative to control; format: functional
[2] = tested on: Mycobacterium tuberculosis; experiment: Antimycobacterial activity against Mycobacterium tuberculosis H37Rv infected in CF-1 mouse assessed as change in survival time at 2 mg/kg administrated daily for 14 days with food relative to control; format: functional
[3] = tested on: Mycobacterium tuberculosis; experiment: Antimycobacterial activity against Mycobacterium tuberculosis H37Rv infected in CF-1 mouse assessed as change in survival time at 4 mg/kg administrated daily for 14 days with food relative to control; format: functional
[4] = tested on: Mycobacterium tuberculosis; experiment: Antimycobacterial activity against Mycobacterium tuberculosis H37Rv infected in CF-1 mouse assessed as change in survival time at 850 mg/kg administrated daily for 14 days with food relative to control; format: functional
[5] = tested on: Mycobacterium tuberculosis; experiment: Antimycobacterial activity against Mycobacterium tuberculosis H37Rv infected in CF-1 mouse assessed as change in survival time at 42 mg/kg administrated daily for 14 days with food relative to control; format: functional
[6] = tested on: Mycobacterium tuberculosis; experiment: Antimycobacterial activity against Mycobacterium tuberculosis H37Rv infected in CF-1 mouse assessed as change in survival time at 8 mg/kg administrated daily for 14 days with food relative to control; format: functional
[7] = tested on: Mycobacterium tuberculosis; experiment: Antimycobacterial activity against Mycobacterium tuberculosis H37Rv infected in CF-1 mouse assessed as change in survival time at 24 mg/kg administrated daily for 14 days with food relative to control; format: functional
Mycobacterium leprae [8] = experiment: Anti-leprotic activity against Mycobacterium leprae infected in CBA mouse assessed as number of Mycobacterium leprae in paw pads at 30 mg/kg administrated 5 times a week and measured 7.5 months post infection (reference value: 3.91 +/- 0.33 10^5); format: functional
Mycobacterium leprae [9] = experiment: Anti-leprotic activity against Mycobacterium leprae infected in 538 CBA mouse assessed as number of Mycobacterium leprae in paw pads at 4 mg/kg administrated via gastric tube 5 times a week and measured 7 months post infection; format: functional
Mycobacterium leprae [10] = experiment: Anti-leprotic activity against Mycobacterium leprae infected in CBA mouse assessed as number of Mycobacterium leprae in paw pads at 10 mg/kg administrated 5 times a week and measured 7.5 months post infection (reference value: 3.91 +/- 0.33 10^5); format: functional
[11] = tested on: Mycobacterium tuberculosis; experiment: Antimycobacterial activity against Mycobacterium tuberculosis H37Rv infected in CF-1 mouse assessed as change in survival time at 25 mg/kg administrated daily for 14 days with food relative to control; format: functional
[12] = tested on: Mycobacterium tuberculosis; experiment: Antimycobacterial activity against Mycobacterium tuberculosis H37Rv infected in CF-1 mouse assessed as change in survival time at 41 mg/kg administrated daily for 14 days with food relative to control; format: functional
[13] = tested on: Mycobacterium tuberculosis; experiment: Antimycobacterial activity against Mycobacterium tuberculosis H37Rv infected in CF-1 mouse assessed as change in survival time at 11 mg/kg administrated daily for 14 days with food relative to control; format: functional
[14] = tested on: Mycobacterium tuberculosis; experiment: Antitubercular activity against Mycobacterium tuberculosis H37Rv ATCC 27294 assessed as growth inhibition at 12.5 ug/ml by microplate alamar blue assay relative to control; format: functional
[15] = Selectivity index, ratio of IC50 for African green monkey Vero cells to MIC for antitubercular activity against Mycobacterium tuberculosis H37Rv; format: toxicity; conditions: vero
[16] = tested on: Mycobacterium tuberculosis; experiment: Antitubercular activity against Mycobacterium tuberculosis H37Rv ATCC 27294 assessed as inhibition of [3H]-thymidine incorporation relative to control; format: functional
Vero = experiment: Cytotoxicity against African green monkey Vero cells incubated for 72 hrs by MTT assay; format: cell-based, Chlorocebus sabaeus
[17] = tested on: Mycobacterium tuberculosis; experiment: Antimycobacterial activity against Mycobacterium tuberculosis H37Rv infected in CF-1 mouse assessed as change in survival time at 3 mg/kg administrated daily for 14 days with food relative to control; format: functional
[18] = tested on: Mycobacterium tuberculosis; experiment: Antimycobacterial activity against Mycobacterium tuberculosis H37Rv infected in CF-1 mouse assessed as change in survival time at 12 mg/kg administrated daily for 14 days with food relative to control; format: functional
[19] = tested on: Mycobacterium tuberculosis; experiment: Antimycobacterial activity against Mycobacterium tuberculosis H37Rv infected in CF-1 mouse assessed as change in survival time at 5 mg/kg administrated daily for 14 days with food relative to control; format: functional
Plasmodium berghei = experiment: Antimalarial activity against Plasmodium berghei infected in albino mouse assessed survival against infection at 400 mg/kg, sc administered as single dose; format: functional
Mycobacterium leprae [20] = experiment: Inhibition of PGL1 synthesis in Mycobacterium leprae infected Swiss Webster mouse macrophages assessed as decrease in [U-14C]PA incorporation at 2 uM preincubated for 4 days post infection followed by [U-14C]PA addition and measured after 7 days by liquid scintillation counter analysis relative to control; format: functional
[21] = tested on: Mycolicibacterium smegmatis; experiment: Antimycobacterial activity against DDS resistant Mycobacterium smegmatis ATCC 607 […]; format: functional
Mycobacterium leprae [22] = experiment: Inhibition of PGL1 synthesis in Mycobacterium leprae infected Swiss Webster mouse macrophages assessed as decrease in [U-14C]PA incorporation at 20 uM preincubated for 4 days post infection followed by [U-14C]PA addition and measured after 7 days by liquid scintillation counter analysis relative to control; format: functional
Mycobacterium leprae [23] = experiment: Anti-leprotic activity against Mycobacterium leprae primary cultures at 4 weeks assessed as [3H]thymidine uptake per 5 times 10^7 cells at 0.025 mg/L (reference value: 0.95 +/- 0.01 pmol); format: functional
[24] = Drug excretion in rat urine at 400 mg/kg, sc administered as single dose measured after 30 days; format: ADME, organism-based; conditions: read-out: Drug excretion
[25] = tested on: Mycolicibacterium smegmatis; experiment: Antimycobacterial activity against DDS sensitive Mycobacterium smegmatis ATCC 607 […]; format: functional
Mycobacterium leprae [26] = experiment: Anti-leprotic activity against Mycobacterium leprae primary cultures at 4 weeks assessed as ATP level per 10^7 cells at 0.025 mg/L measured by bioluminescence assay (reference value: 314 +/- 46 pg); format: functional
Mycobacterium leprae [27] = experiment: Anti-leprotic activity against Mycobacterium leprae subcultures at 4 weeks assessed as [3H]thymidine uptake per 5 times 10^7 cells at 0.025 mg/L (reference value: 1.28 +/- 0.14 pmol); format: functional
Mycobacterium leprae [28] = experiment: Anti-leprotic activity against Mycobacterium leprae subcultures at 4 weeks assessed as [3H]thymidine uptake per 5 times 10^7 cells at 0.01 mg/L (reference value: 1.28 +/- 0.14 pmol); format: functional
Mycobacterium leprae [29] = experiment: Anti-leprotic activity against Mycobacterium leprae infected in albino mouse assessed survival against infection at 400 mg/kg, sc administered 58 days post-infection and subsequent compound dosing at 200 mg/kg at 0.5, 1 or 2 months interval; format: functional
Rattus norvegicus = experiment: Effect of metallo-protein haemoglobin in rat assessed as peak methemoglobin level at 400 mg/kg, sc administered as single dose; format: ADME, organism-based; conditions: in vivo
Mycobacterium leprae [30] = experiment: Anti-leprotic activity against Mycobacterium leprae subcultures at 4 weeks assessed as ATP level per 10^7 cells at 0.01 mg/L measured by bioluminescence assay (reference value: 462 +/- 64 pg); format: functional
Mycobacterium leprae [31] = experiment: Anti-leprotic activity against Mycobacterium leprae primary cultures at 4 weeks assessed as ATP level per 10^7 cells at 0.005 mg/L measured by bioluminescence assay (reference value: 314 +/- 46 pg); format: functional
[32] = Drug concentration in rat blood at 400 mg/kg, sc administered as single dose; format: ADME, organism-based; conditions: in vivo
Mycobacterium leprae [33] = experiment: Anti-leprotic activity against Mycobacterium leprae subcultures at 4 weeks assessed as ATP level per 10^7 cells at 0.025 mg/L measured by bioluminescence assay (reference value: 462 +/- 64 pg); format: functional
Mycobacterium leprae [34] = experiment: Anti-leprotic activity against Mycobacterium leprae primary cultures at 4 weeks assessed as [3H]thymidine uptake per 5 times 10^7 cells at 0.01 mg/L (reference value: 0.95 +/- 0.01 pmol); format: functional
Mycobacterium leprae [35] = experiment: Anti-leprotic activity against Mycobacterium leprae infected in BALB/c mouse assessed as time delay in bacterial multiplication in footpad at 0.0001 g/100g of diet administered via feed starting 60 or 75 day post infection up to 90 days by Shepard's kinetic method; format: functional
Mycobacterium leprae [36] = experiment: Anti-leprotic activity against Mycobacterium leprae infected in 538 CBA mouse assessed as number of Mycobacterium leprae in paw pads at 2 mg/kg administrated via gastric tube 5 times a week and measured 7 months post infection; format: functional
Mycobacterium leprae [37] = experiment: Anti-leprotic activity against Mycobacterium leprae subcultures at 4 weeks assessed as [3H]thymidine uptake per 5 times 10^7 cells at 0.005 mg/L (reference value: 1.28 +/- 0.14 pmol); format: functional
Mycobacterium leprae [38] = experiment: Anti-leprotic activity against Mycobacterium leprae primary cultures at 4 weeks assessed as ATP level per 10^7 cells at 0.01 mg/L measured by bioluminescence assay (reference value: 314 +/- 46 pg); format: functional
Mycobacterium leprae [39] = experiment: Antimicrobial activity against Mycobacterium leprae; format: functional
Mycobacterium leprae [40] = experiment: Anti-leprotic activity against Mycobacterium leprae subcultures at 4 weeks assessed as ATP level per 10^7 cells at 0.005 mg/L measured by bioluminescence assay (reference value: 462 +/- 64 pg); format: functional
Mycobacterium leprae [41] = experiment: Anti-leprotic activity against Mycobacterium leprae primary cultures at 4 weeks assessed as [3H]thymidine uptake per 5 times 10^7 cells at 0.005 mg/L (reference value: 0.95 +/- 0.01 pmol); format: functional
[42] = tested on: Mycobacterium tuberculosis; experiment: Antimycobacterial activity against Mycobacterium tuberculosis H37Rv infected in CF-1 mouse assessed as change in survival time at 16 mg/kg administrated daily for 14 days with food relative to control; format: functional
[43] = tested on: Mycobacterium tuberculosis; experiment: Antimycobacterial activity against Mycobacterium tuberculosis H37Rv infected in CF-1 mouse assessed as change in survival time at 9 mg/kg administrated daily for 14 days with food relative to control; format: functional

Nc1ccc(C(=O)O)c(O)c1 [AMINOSALICYLIC ACID]
MST [1]: 52 days
MST [2]: 17 days
MST [3]: 26 days
MST [4]: 25 days

COc1ccc(/N=N/c2ccc(NCCCN3CCCCC3)c3c2CCCC3)cc1
MST [5]: 50 days
MST [6]: 13 days
MST [3]: 11 days
MST [7]: 26 days

CCN(CC)C(=S)Sc1ncc([N+](=O)[O-])cc1C#N
Activity (Mycobacterium leprae [8]): 0.06 ×10⁵ No_unit
Activity (Mycobacterium leprae [9]): 0.042 ×10⁷ No_unit
Activity (Mycobacterium leprae [10]): 0.56 ×10⁵ No_unit

c1ccc(/N=N/c2ccc(NCCCN3CCCCC3)c3c2CCCC3)cc1
MST [11]: 37 days
MST [12]: 50 days
MST [13]: 13 days

Clc1nc(-c2ccccc2)c2ncn(Cc3ccccc3)c2n1
inhibition at 12.5 µg/mL [14]: > 90%
Selectivity Index [15]: Nd(Insoluble)
inhibition (INH) [16]: 76%
IC50 (Vero): Nd(Insoluble)

COc1ccc(/N=N/c2ccc(NCCCN3CCCCC3)c3c2CCCC3)cn1
MST [17]: 10 days
MST [18]: 31 days
MST [19]: 13 days
MST [7]: 46 days

Nc1ccc(S(=O)(=O)c2ccc(N)cc2)cc1 [DAPSONE]
Survival (Plasmodium berghei): <1 weeks
inhibition at 2 µM (Mycobacterium leprae [20]): 92%
MIC [21]: 3220 µg/mL (≈ 13000 µM)
inhibition at 20 µM (Mycobacterium leprae [22]): 91%
Activity (Mycobacterium leprae [23]): 0 pmol
Activity (Mycobacterium leprae [8]): 0.22 ×10⁵ No_unit
dose excreted at 720 h [24]: 57%
MIC [25]: 8.1 µg/mL (≈ 32.6 µM)
Activity (Mycobacterium leprae [26]): 0 pg
Activity (Mycobacterium leprae [27]): 0 pmol
Activity (Mycobacterium leprae [28]): 0.92 pmol
Survival (Mycobacterium leprae [29]): 2 weeks
Activity (Rattus norvegicus): 3.9 g/dL
Activity (Mycobacterium leprae [30]): 396 pg
Activity (Mycobacterium leprae [31]): 334 pg
Drug uptake [32]: 13.8 µg/mL
Activity (Mycobacterium leprae [33]): 0 pg
Activity (Mycobacterium leprae [34]): 0.79 pmol
Time (Mycobacterium leprae [35]): >91 days
Activity (Mycobacterium leprae [10]): 0.27 ×10⁵ No_unit
Activity (Mycobacterium leprae [36]): 0.025 ×10⁷ No_unit
Activity (Mycobacterium leprae [37]): 1.37 pmol
Activity (Mycobacterium leprae [38]): 307 pg
MIC (Mycobacterium leprae [39]): 15 µg/mL (≈ 60.4 µM)
Activity (Mycobacterium leprae [40]): 514 pg
Activity (Mycobacterium leprae [41]): 0.98 pmol

Clc1ccc(/N=N/c2ccc(NCCCN3CCCCC3)c3c2CCCC3)cc1
MST [19]: 33 days
MST [2]: 11 days
MST [42]: 78 days
MST [43]: 42 days
